# Measurements: patent US20030233678A1, “Pre- and post-harvest inhibition of remobilisation of storage compounds” (Mogen International N.V., priority 1997, published 2003)
# Test system: potato tuber pieces containing at least one active meristem (wild-type and tps)
# Assay: Sprouting of cut tuber pieces incubated on gibberellic acid solutions
# Format: in vivo, Solanum tuberosum Var. Kardal
# Conditions: 1, 10 or 1000 ppm solution, 10 min incubation
# Procedure: Pat-TPS plants (Var. […]) derived from tissue culture plants were grown in the phytochamber under 500 μmol quanta m-2 s-1 (16 h light, 20° C.; 8 h dark (15° C.)). Tubers were harvested after three months and stored in the cold (4° C.) for 2 months. Three days after transfer to room temperature (RT), tuber pieces were cut with a knife containing at least one active meristem (eye). Cut pieces originating from 3-10 tubers per line were washed for 15 min in tap water. Approximately 6-10 pieces were subsequently incubated for 10 min on either water or on a 1, 10 or 1000 ppm solution of gibberellic acid (GA3, SIGMA, Zwijndrecht, Netherlands). All pieces from one treatment were transferred to containers onto wet paper tissue and covered with a plastic top to prevent drying out.
smiles,measurement,setting,value
"C=C1C[C@]23C[C@@]1(O)CC[C@H]2[C@@]12C=C[C@H](O)[C@@](C)(C(=O)O1)[C@H]2[C@@H]3C(=O)O [GA3, gibberellic acid]",time until sprouting occurred,tps tuber pieces,≤ 4 days
same,time until sprouting occurred,wild-type tuber pieces,≤ 4 days
